Assay results: patent publication US5500430A, “Amidic derivatives of glutamic, aspartic and 2-amino adipic acids, a process for preparing same, and anti-gastrin composition containing the derivatives” (Rotta Research Laboratorium S.p.A., priority 1990, dated 1996)
Where two headings read alike, the source gives them in different places.

Assays:
[1] = molecular target: T1, gastrin receptor sites on the cerebral cortex membranes of mice (Mus musculus, UniProt P56481); assay: Inhibition of the binding of pentagastrin to mouse cortical membranes
T1 construct: Mouse cortical tissue; from tissue; host or cells: mouse cerebral cortex membranes
T1 sequence (P56481 1-453): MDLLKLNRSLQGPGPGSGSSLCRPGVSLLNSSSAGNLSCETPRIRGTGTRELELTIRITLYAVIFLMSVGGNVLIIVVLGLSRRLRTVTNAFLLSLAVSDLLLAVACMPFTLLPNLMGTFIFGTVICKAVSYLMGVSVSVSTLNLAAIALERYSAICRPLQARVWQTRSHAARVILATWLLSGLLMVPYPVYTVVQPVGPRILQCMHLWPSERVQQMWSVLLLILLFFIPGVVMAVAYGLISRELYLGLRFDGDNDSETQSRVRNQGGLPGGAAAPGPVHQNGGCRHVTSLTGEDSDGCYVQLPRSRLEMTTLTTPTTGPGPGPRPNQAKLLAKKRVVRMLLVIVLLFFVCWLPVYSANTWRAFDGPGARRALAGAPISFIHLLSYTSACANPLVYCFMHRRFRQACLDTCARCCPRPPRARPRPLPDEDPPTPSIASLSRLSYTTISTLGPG
Description: Tests on binding to cerebral cortex membranes of mice
The capacities of some of the compounds of the invention to inhibit the binding of pentagastrin to the gastrin receptor sites on the cerebral cortex membranes of mice was to be evaluated. Pentagastrin tritiate[beta-alanyl-3-3H(N)] was used as the ligand.
Mouse cortical tissue Was homogenised cold in 20 volumes of tris buffer (pH 7.7). After washing and centrifuging, the final pellet was resuspended in 20 volumes of binding buffer containing, inter alia, TRIS, BSA and Bacitracin. 0.4 ml of the membrane thus obtained were then incubated with a radioactive tracer and the compounds under test for 40 minutes at 37° C.
After the supernatant liquid had been removed by centrifuging, the radioactivity associated with the pellet was determined with a liquid scintillator (a beta-counter). The specific binding was the difference between the binding in the absence and in the presence of 10^-5M pentagastrin.

[2] = tested on: gastric acid secretion induced by pentagastrin; assay: Antisecretive activity in anaesthetised rats (pentagastrin-stimulated gastric acid secretion); type: in vivo; settings: pentagastrin 30 mcg/Kg/h; for ED50: Rattus norvegicus, iv, anaesthetised male rats, I.V. bolus, IN with bound, read-out: Antagonistic activity (ID50) towards gastric acid secretion induced by pentagastrin; for Antigastrin activity (in words): anaesthetised rats
Description: Antisecretive activity in anaesthetised rats
Antisecretive activity in rats was determined with the use of male animals each weighing about 200 g, anaesthetised with urethane. Gastric secretion was stimulated with pentagastrin. The method of K. S. Lai (Gut 5, (1964), 327-341) was used, slightly modified.
After tracheotomy, cannulae were inserted in the oesophagus and the duodenum. A tepid solution. (37° C.) of 0.25 mM NaOH was perfused and passed through the stomach by means of a peristaltic pump at a constant flow rate of 1 ml/minute. After stabilisation for 20 minutes, the stimulating agent, dissolved in a physiological solution, was perfused for 120 minutes at a dose of 30 mcg/Kg/h in a volume of 0.95 ml/hour. After perfusion for 60 minutes (the basal stimulation), the product under test was administered as an intravenous bolus (I.V.) and the perfusion of the stimulant continued for a further 60 minutes. Acid secretion was recorded continuously as a function of time.
The activity of the product was evaluated as the percentage reduction in the secreted acidity after the administration of the product compared with the base acidity measured during the first 60 minutes of collection during which only the pentagastrin was present.
Different doses of the antagonist compounds tested were administered so that an ID50, that is, the dose (in mg/Kg I.V.) capable of inhibiting the effect of pentagastrin by 50%, could be calculated.
The results thus obtained are illustrated in the following table (Table 1) in which the activities of the compounds are expressed as the ID50s under the stimulus of 30 mcg/Kg/h of pentagastrin.

[3] = tested on: guinea-pig gall bladder contracted with CCK-8; assay: Anticholecystokinin (anti-CCK) activity on guinea-pig gall bladders stimulated by CCK-8 in vitro; settings: for Anti-CCK activity IC50: CCK-8 concentration 10 ng/ml, Krebs, 32° C.; for Antagonism of contracturant activity of CCK-8 relative to lorglumide (in words): vs lorglumide
Description: Anticholecystokinin (anti-cc, K) activity
In order to confirm the hypothesis that the molecular conformations of the compounds of the invention are suitable to provide them with antagonistic activity towards CCK as well as towards gastrin, the anticontracturant activities of some of the compounds of the invention were tested on guinea-pig gall bladders stimulated by CCK-8 in vitro.
A longitudinal strip of guinea-pig gall bladder was placed in a bath for isolated organs in the presence of Krebs at a temperature of 32° C. and oxygenated continuously with an oxygen-CO2 mixture (95-5 V/V).
The isometric contractions were detected by means of a force transducer and recorded.
The gall bladder was contracted with the use of a concentration of 10 ng/ml of CCK-8; the antagonistic activities of the compounds towards the contracturant effect of the CCK was determined with the use of different concentrations, thus determining the IC50 values, that is, the concentration of the compound in mcg/ml which can antagonise the contracturant effect of CCK by 50%.

[4] = pentagastrin tritiate ligand, 40 minutes at 37° C., read-out: IC50, inhibition of the binding of pentagastrin

SMILES	IC50 [1, 4] [nM]	ED50 [2] [mg/kg]	further results
O=C(O)CCC(NC(=O)c1cccc(Cl)c1)C(=O)N1CCC2(CC1)SCCS2 (racemic) [Compound D1, (R,S) (±)-4-[(3-chlorobenzoyl)amino]-5-(1.4-dithia-8-azaspiro[4.5]decan-8-yl)-5-oxopentanoic acid]	2600	> 75	–
O=C(O)CC[C@@H](NC(=O)c1cccc(Cl)c1)C(=O)N1CCC2(CCCCC2)CC1 [Compound C2]	140	33	Anti-CCK activity IC50 [3]: 4.9 µg/mL
O=C(O)CC[C@@H](NC(=O)c1cccc(Cl)c1)C(=O)N1CCC2(CCCC2)C1 [Compound C3]	–	75	Anti-CCK activity IC50 [3]: 43 µg/mL
O=C(O)CC[C@@H](NC(=O)c1cccc(Cl)c1)C(=O)N1CCC2(CCCCC2)C1 [Compound C4]	–	49	–
O=C(O)CC[C@@H](NC(=O)c1cc(Cl)cc(Cl)c1)C(=O)N1CCC2(CCCCC2)C1 [Compound C6]	320	45	–
O=C(O)CC[C@@H](NC(=O)c1cc(Cl)cc(Cl)c1)C(=O)N1CCC2(CCCC2)C1 [Compound C7]	–	60	–
O=C(O)CC[C@@H](NC(=O)c1cccc(Cl)c1Cl)C(=O)N1CCC2(CCCC2)CC1 [Compound C9]	–	40	–
O=C(O)CC[C@@H](NC(=O)c1ccc2ccccc2c1)C(=O)N1CCC2(CCCC2)CC1 [Compound C10]	100	45	Anti-CCK activity IC50 [3]: 1.0 µg/mL; Antagonism of contracturant activity of CCK-8 relative to lorglumide (in words) [3]: at concentrations no greater than those shown by lorglumide
Cc1cccc(C(=O)N[C@H](CCC(=O)O)C(=O)N2CCC3(CCCC3)CC2)c1 [Compound C11]	–	38	–
CCc1cccc(C(=O)N[C@H](CCC(=O)O)C(=O)N2CCC3(CCCC3)CC2)c1 [Compound C12]	–	38	–
Cc1cc(C)cc(C(=O)N[C@H](CCC(=O)O)C(=O)N2CCC3(CCCC3)CC2)c1 [Compound C13]	–	33	–
O=C(O)CC[C@@H](NC(=O)c1cccc([N+](=O)[O-])c1)C(=O)N1CCC2(CCCC2)CC1 [Compound C14]	8100	68	–
COc1cccc(C(=O)N[C@H](CCC(=O)O)C(=O)N2CCC3(CCCC3)CC2)c1 [Compound C15]	–	46	–
N#Cc1cccc(C(=O)N[C@H](CCC(=O)O)C(=O)N2CCC3(CCCC3)CC2)c1 [Compound C16]	–	66	–
O=C(O)CC[C@@H](NC(=O)c1cccc(C(F)(F)F)c1)C(=O)N1CCC2(CCCC2)CC1 [Compound C17]	–	55	–
CC(C)c1ccc(C(=O)N[C@H](CCC(=O)O)C(=O)N2CCC3(CCCC3)CC2)cc1 [Compound C18]	–	28	–
O=C(O)CC[C@@H](NC(=O)c1cnc2ccccc2c1)C(=O)N1CCC2(CCCC2)CC1 [Compound C19]	–	68	Anti-CCK activity IC50 [3]: 1.5 µg/mL; Antagonism of contracturant activity of CCK-8 relative to lorglumide (in words) [3]: at concentrations no greater than those shown by lorglumide
O=C(O)CC[C@@H](NC(=O)c1ccc(Cl)c(Cl)c1)C(=O)N1CCC2(CCCCC2)CC1 [Compound C20]	–	64	Anti-CCK activity IC50 [3]: 0.5 µg/mL; Antagonism of contracturant activity of CCK-8 relative to lorglumide (in words) [3]: at concentrations no greater than those shown by lorglumide
O=C(O)CC[C@@H](NC(=O)c1cnc2ccccc2c1)C(=O)N1CCC2(CCCCC2)CC1 [Compound C21]	510	> 75	Anti-CCK activity IC50 [3]: 0.2 µg/mL; Antagonism of contracturant activity of CCK-8 relative to lorglumide (in words) [3]: at concentrations no greater than those shown by lorglumide

SMILES	IC50 [1, 4] [nM]	ED50 [2] [mg/kg]	further results
O=C(O)CC[C@@H](NC(=O)c1cccc(Cl)c1)C(=O)NC1CCC2(CCCCC2)CC1 [Compound C22]	–	55	–
O=C(O)CC[C@@H](NC(=O)c1cc(Cl)cc(Cl)c1)C(=O)NC1CCC2(CCCCC2)CC1 [Compound C23]	320	40	–
O=C(O)CC[C@@H](NC(=O)c1ccco1)C(=O)N1CCC2(CCCC2)CC1 [Compound C24]	–	> 75	–
O=C(O)CC[C@@H](NC(=O)c1cccnc1Cl)C(=O)N1CCC2(CCCC2)CC1 [Compound C25]	–	69	–
O=C(O)CC[C@@H](NC(=O)c1cc2ccccc2[nH]1)C(=O)N1CCC2(CCCC2)CC1 [Compound C26]	–	> 75	–
O=C(O)CC[C@@H](NC(=O)c1cccc(Cl)c1)C(=O)N1CCC2(CC1)OCCO2 [Compound C27]	–	81	–
O=C(O)CC[C@@H](NC(=O)c1cc(Cl)cc(Cl)c1)C(=O)N1CCC2(CC1)OCCO2 [Compound C28]	–	70	–
O=C(O)CC[C@@H](NC(=O)c1cccc(Cl)c1)C(=O)N1CCC2CCCCC2C1 (stereo partly shown) [Compound C29]	800	35	Anti-CCK activity IC50 [3]: 234 µg/mL
O=C(O)CC[C@@H](NC(=O)c1cccc(Cl)c1)C(=O)NCCC12CC3CC(CC(C3)C1)C2 [Compound C30]	30	25	Anti-CCK activity IC50 [3]: 59 µg/mL; Antigastrin activity (in words) [2]: particularly favourable
O=C(O)CC[C@@H](NC(=O)c1cc(Cl)cc(Cl)c1)C(=O)NCCC12CC3CC(CC(C3)C1)C2 [Compound C31]	–	20	Antigastrin activity (in words) [2]: particularly favourable
O=C(O)CC[C@H](NC(=O)c1cccc(Cl)c1)C(=O)N1CCC2(CCCC2)CC1 [Compound C32]	26000	> 100	Antigastrin activity (in words) [2]: completely inactive up to a dose of 100 mg/Kg
O=C(O)CCC(NC(=O)c1cccc(Cl)c1)C(=O)N1CCC2(CC1)OCC(CO)O2 (stereo not shown) [Compound D2]	–	85	Anti-CCK activity IC50 [3]: 108 µg/mL; IC50 [1]: > 10000 nM
O=C(O)CCC(NC(=O)c1cccc(Cl)c1)C(=O)N1CCC2(CC1)OCCS2 (stereo not shown) [Compound D3]	–	67	–
O=C(O)CC(NC(=O)c1cccc(Cl)c1)C(=O)N1CCC2(CCCC2)CC1 (stereo not shown) [Compound D4]	6800	70	Anti-CCK activity IC50 [3]: 36 µg/mL
O=C(O)CCCC(NC(=O)c1cccc(Cl)c1)C(=O)N1CCC2(CCCC2)CC1 (stereo not shown) [Compound D5]	1500	32	–
O=C(O)CCC(NC(=O)c1cccc(Cl)c1)C(=O)NC1CCC2CCCCC2C1 (stereo not shown) [Compound D6]	–	60	–
O=C(O)CCC(NC(=O)c1cc(Cl)cc(Cl)c1)C(=O)NC1CCC2CCCCC2C1 (stereo not shown) [Compound D7]	–	48	–
CCCCCN(CCCCC)C(=O)C(CCC(=O)O)NC(=O)c1ccc(Cl)c(Cl)c1 (stereo not shown) [Lorglumide, lorglumide, reference compound]	–	> 100	Anti-CCK activity IC50 [3]: 0.06 µg/mL; Antigastrin activity (in words) [2]: completely inactive up to a dose of 100 mg/Kg
CCCN(CCC)C(=O)C(CCC(=O)O)NC(=O)c1ccccc1 (stereo not shown) [Proglumide, proglumide, reference compound]	–	500	–
